Measured values reported in the NIST ThermoML archive (doi:10.1021/acs.jced.8b00132).
Where “and” joins values, the source holds several entries; their conditions need not be identical. Equal entries are not always repeated.

O=C(C(F)(F)C(F)(F)F)C(F)(C(F)(F)F)C(F)(F)F [dodecafluoro-2-methylpentan-3-one]
Details	thermal conductivity
432.7 K, 49519 kPa, Liquid, transient hot wire	0.06451 W/m/K
432.71 K, 656 kPa, Gas, hot wire	0.02379 W/m/K
432.72 K, 1422 kPa, Gas, transient hot wire	0.02498 W/m/K
432.72 K, 49517 kPa, Liquid, transient hot wire	0.06454 W/m/K
432.77 K, 1418 kPa, Gas, transient hot wire	0.02496 W/m/K
432.77 K, 1419 kPa, Gas, transient hot wire	0.02504 W/m/K
432.79 K, 1709 kPa, Liquid, transient hot wire	0.03809 W/m/K
432.79 K, 34245 kPa, Liquid, transient hot wire	0.05883 W/m/K
432.8 K, 1709 kPa, Liquid, transient hot wire	0.03764 W/m/K
432.8 K, 1977 kPa, Liquid, transient hot wire	0.03806 W/m/K
432.81 K, 652 kPa, Gas, hot wire	0.02381 W/m/K
432.81 K, 655 kPa, Gas, hot wire	0.02367 W/m/K
432.81 K, 1704 kPa, Liquid, transient hot wire	0.03807 W/m/K
432.81 K, 1706 kPa, Liquid, transient hot wire	0.03761 W/m/K
432.81 K, 1977 kPa, Liquid, transient hot wire	0.03794 W/m/K
432.81 K, 22767 kPa, Liquid, transient hot wire	0.05368 W/m/K
432.82 K, 375 kPa, Gas, hot wire	0.02254 W/m/K
432.83 K, 376 kPa, Gas, hot wire	0.02257 W/m/K
432.83 K, 22777 kPa, Liquid, transient hot wire	0.05369 W/m/K
432.84 K, 2631 kPa, Liquid, transient hot wire	0.03896 W/m/K
432.84 K, 49496 kPa, Liquid, transient hot wire	0.06439 W/m/K
432.84 K, 49505 kPa, Liquid, transient hot wire	0.06438 W/m/K
432.86 K, 2631 kPa, Liquid, transient hot wire	0.03897 W/m/K
432.87 K, 158 kPa, Gas, hot wire	0.02102 W/m/K
432.87 K, 159 kPa, Gas, hot wire	0.02111 W/m/K
432.87 K, 3941 kPa, Liquid, transient hot wire	0.04063 W/m/K
432.88 K, 1297 kPa, Gas, transient hot wire	0.02344 W/m/K
432.88 K, 1298 kPa, Gas, transient hot wire	0.02358 W/m/K
432.88 K, 1418 kPa, Gas, transient hot wire	0.02521 W/m/K
432.9 K, 43 kPa, Gas, hot wire	0.02081 W/m/K
432.9 K, 650 kPa, Gas, hot wire	0.02367 W/m/K
432.91 K, 42 kPa, Gas, hot wire	0.02089 W/m/K
432.93 K, 374 kPa, Gas, hot wire	0.02268 W/m/K
432.93 K, 375 kPa, Gas, hot wire	0.02269 W/m/K
432.93 K, 1976 kPa, Liquid, transient hot wire	0.03821 W/m/K
432.93 K, 34232 kPa, Liquid, transient hot wire	0.05866 W/m/K
432.93 K, 34243 kPa, Liquid, transient hot wire	0.05865 W/m/K
432.94 K, 1977 kPa, Liquid, transient hot wire	0.03807 W/m/K
432.95 K, 1709 kPa, Liquid, transient hot wire	0.03814 W/m/K
432.98 K, 22754 kPa, Liquid, transient hot wire	0.05357 W/m/K
432.98 K, 49470 kPa, Liquid, transient hot wire	0.06431 W/m/K
432.99 K, 157 kPa, Gas, hot wire	0.02107 W/m/K and 0.02099 W/m/K
432.99 K, 1298 kPa, Gas, transient hot wire	0.02366 W/m/K
433 K, 1299 kPa, Gas, transient hot wire	0.02363 W/m/K
433 K, 6150 kPa, Liquid, transient hot wire	0.04309 W/m/K
433 K, 15091 kPa, Liquid, transient hot wire	0.04962 W/m/K
433 K, 15095 kPa, Liquid, transient hot wire	0.04957 W/m/K
433.01 K, 43 kPa, Gas, hot wire	0.02102 W/m/K and 0.02104 W/m/K
433.02 K, 647 kPa, Gas, hot wire	0.02339 W/m/K
433.02 K, 648 kPa, Gas, hot wire	0.02337 W/m/K
433.02 K, 6152 kPa, Liquid, transient hot wire	0.04303 W/m/K
433.03 K, 3941 kPa, Liquid, transient hot wire	0.04082 W/m/K
433.04 K, 373 kPa, Gas, hot wire	0.02274 W/m/K
433.04 K, 2629 kPa, Liquid, transient hot wire	0.03906 W/m/K
433.04 K, 2631 kPa, Liquid, transient hot wire	0.03946 W/m/K
433.05 K, 372 kPa, Gas, hot wire	0.02268 W/m/K
433.05 K, 3942 kPa, Liquid, transient hot wire	0.04075 W/m/K
433.08 K, 34226 kPa, Liquid, transient hot wire	0.05871 W/m/K
433.08 K, 34233 kPa, Liquid, transient hot wire	0.05874 W/m/K
433.11 K, 155 kPa, Gas, hot wire	0.02111 W/m/K
433.12 K, 156 kPa, Gas, hot wire	0.02101 W/m/K
433.12 K, 646 kPa, Gas, hot wire	0.02323 W/m/K
433.12 K, 9670 kPa, Liquid, transient hot wire	0.04595 W/m/K
433.12 K, 9671 kPa, Liquid, transient hot wire	0.04584 W/m/K
433.12 K, 49466 kPa, Liquid, transient hot wire	0.06434 W/m/K
433.13 K, 43 kPa, Gas, hot wire	0.02102 W/m/K
433.13 K, 644 kPa, Gas, hot wire	0.02306 W/m/K
433.13 K, 22732 kPa, Liquid, transient hot wire	0.05371 W/m/K
433.13 K, 22752 kPa, Liquid, transient hot wire	0.05367 W/m/K
433.13 K, 49459 kPa, Liquid, transient hot wire	0.06442 W/m/K
433.14 K, 43 kPa, Gas, hot wire	0.02099 W/m/K
433.14 K, 1300 kPa, Gas, transient hot wire	0.02391 W/m/K
433.16 K, 372 kPa, Gas, hot wire	0.02272 W/m/K and 0.02276 W/m/K
433.16 K, 15084 kPa, Liquid, transient hot wire	0.04944 W/m/K
433.19 K, 6155 kPa, Liquid, transient hot wire	0.04297 W/m/K
433.19 K, 6159 kPa, Liquid, transient hot wire	0.04336 W/m/K
433.19 K, 15094 kPa, Liquid, transient hot wire	0.04947 W/m/K
433.21 K, 1138 kPa, Gas, transient hot wire	0.02265 W/m/K and 0.02278 W/m/K
433.24 K, 155 kPa, Gas, hot wire	0.02111 W/m/K
433.24 K, 1299 kPa, Gas, transient hot wire	0.02422 W/m/K
433.24 K, 3943 kPa, Liquid, transient hot wire	0.04078 W/m/K
433.24 K, 3944 kPa, Liquid, transient hot wire	0.04039 W/m/K
433.24 K, 34207 kPa, Liquid, transient hot wire	0.05868 W/m/K
433.24 K, 34211 kPa, Liquid, transient hot wire	0.05857 W/m/K
